“Also recorded” adds a separate entry of the source. Where a name gives a salt, the structure may show the parent alone. Read-outs that look alike come from different tables or passages of the source.
Key:
T2R4 [1] = molecular target: T1, T2R4 (Homo sapiens, UniProt Q9NYW5); settings: cited from earlier work
T1 sequence (Q9NYW5 1-299): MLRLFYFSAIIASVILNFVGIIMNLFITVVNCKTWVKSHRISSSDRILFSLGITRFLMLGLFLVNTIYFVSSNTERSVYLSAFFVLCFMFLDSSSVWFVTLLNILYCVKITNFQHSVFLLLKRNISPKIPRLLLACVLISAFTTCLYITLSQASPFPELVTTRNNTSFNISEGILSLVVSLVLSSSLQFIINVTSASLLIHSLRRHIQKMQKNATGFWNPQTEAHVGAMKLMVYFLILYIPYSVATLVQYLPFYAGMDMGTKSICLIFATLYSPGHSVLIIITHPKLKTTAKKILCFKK

T2R20 = molecular target: T2, T2R20 (Homo sapiens, UniProt P59543); experiment: Calcium mobilization assay, HEK293T cells stably expressing T2R20; format: cell-based; settings: for EC50: 3–200 μM, ± standard deviation, read-out: EC50, activation of T2R20 calcium mobilization; for Activation of T2R20 by compound alone: 100 μM
T2 sequence (P59543 1-309): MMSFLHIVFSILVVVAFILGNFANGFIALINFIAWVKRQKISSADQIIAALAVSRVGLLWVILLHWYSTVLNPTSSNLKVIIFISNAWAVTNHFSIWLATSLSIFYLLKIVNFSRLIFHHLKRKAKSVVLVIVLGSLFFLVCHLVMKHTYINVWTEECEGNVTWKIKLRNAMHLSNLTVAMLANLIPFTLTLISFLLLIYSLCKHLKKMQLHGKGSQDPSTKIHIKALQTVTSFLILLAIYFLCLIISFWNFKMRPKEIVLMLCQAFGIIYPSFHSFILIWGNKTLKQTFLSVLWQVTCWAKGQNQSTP
From the text: (§1) Human Embryonic Kidney (HEK293T) cell line was purchased from ATCC (Manassas, VA, USA). N-terminal FLAG epitope tagged human TAS2R4, TAS2R14, and TAS2R20 genes were codon-optimized for expression in mammalian cells and cloned into the KpnI-NotI site of pcDNA 3.1/Hygro (+) expression vector, and they were commercially synthesized (GenScript Inc., Piscataway, MA, USA) as previously described in Reference. We generated stable HEK293T cells expressing the above T2Rs in the selection medium containing 200 μg/mL hygromycin as described previously in References.
(§2) Calcium mobilization assays on each T2R expressing stable cells were performed by incubation with Fluo-4 NW dye containing probenecid (2.5 mM) for 35 min at 37 °C, followed by 35 min at room temperature. We then treated the cells either with the putative agonist alone or in combination with the AGE compound. To elucidate the action of AGEs on T2Rs, the cells were initially treated with a fixed concentration (100 μM). To determine IC50 for AGE compounds, the agonist concentration was kept constant whilst the AGE compound was added in a concentration dependent manner (3 μM to 200 μM). To determine EC50 for the agonists, we used a concentration range from 3 μM to 200 μM. The Flexstation-3 automated fluorescence microplate reader (Molecular devices) was used to measure the calcium at 525 nm emission, followed by excitation at 494 nm. ΔRFU (relative fluorescence units) were calculated by the system based on the difference between the maximum response and minimum response. We used HEK293T cells as the control for baseline subtraction. The data were collected from at least three independent experiments performed in triplicates and analyzed using GraphPad Prism V. 6.0 (GraphPadSoftware, La Jolla, CA, USA).

T2R14 = molecular target: T3, T2R14 (Homo sapiens, UniProt Q9NYV8); experiment: Calcium mobilization assay, HEK293T cells stably expressing T2R14; format: cell-based; settings: for Calcium response by compound alone, T2R14 cells: 100 μM; for Inhibition of DPH-activated T2R14 calcium mobilization: 3–200 μM AGE with DPH 500 μM
T3 sequence (Q9NYV8 1-317): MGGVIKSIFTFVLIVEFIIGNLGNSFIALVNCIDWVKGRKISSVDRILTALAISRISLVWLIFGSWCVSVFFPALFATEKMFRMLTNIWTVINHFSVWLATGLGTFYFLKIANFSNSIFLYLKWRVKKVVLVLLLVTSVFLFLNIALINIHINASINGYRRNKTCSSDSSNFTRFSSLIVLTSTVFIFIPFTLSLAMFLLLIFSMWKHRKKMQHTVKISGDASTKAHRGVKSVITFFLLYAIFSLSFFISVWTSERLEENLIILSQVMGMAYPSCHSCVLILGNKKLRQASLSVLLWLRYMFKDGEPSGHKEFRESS
From the text: as §1, §2

T2R4 [2] = molecular target: T1, T2R4; experiment: Calcium mobilization assay, HEK293T cells stably expressing T2R4; format: cell-based; settings: for Calcium mobilization by compound alone, T2R4 cells: 100 μM, compared to basal; for IC50: 3–200 μM AGE with quinine 1 mM, ± standard deviation, read-out: IC50, inhibition of quinine-activated T2R4 calcium mobilization
From the text: as §1, §2

[3] = Solubility in calcium assay buffer; format: physicochemical; settings: 1X HBSS, 20 mM HEPES
From the text: The cell-culture medium was composed of Dulbecco’s modified Eagle’s medium-F12 (Gibco, Life technologies, Carlsbad, CA, USA) supplemented with 10% heat-inactivated fetal bovine serum (Sigma, Burlington, MA, USA) and 1% penicillin-streptomycin (Gibco, Life technologies). We used hygromycin (Sigma Aldrich, Oakville, ON, Canada) in the selection medium to generate stable cells. All bitter compounds (quinine hydrochloride, diphenhydramine or DPH, and cromolyn) were purchased from Sigma Aldrich (Oakville, ON, Canada). We purchased glyoxal-derived lysine dimer (GOLD) and Nε-Carboxymethyl-L-lysine (CML) from PolyPeptide Laboratories (Strasbourg, France). All the compounds were freshly prepared using calcium assay buffer (1X HBSS, 20 mM HEPES) on the day of the experiment. Calcium sensitive dye Fluo-4 NW kit was purchased from Life technologies (Carlsbad, CA USA).

For `NCCCC[C@@H](C(=O)O)N(CC(=O)O)CC(=O)O` [BCML, Nα, Nα-bis(carboxymethyl)-L-lysine], the IC50 (T2R4 [1]; read-out: IC50 against quinine, T2R4 antagonist) is given as 0.06 µM.
For `O=C(O)c1cc(=O)c2c(OCC(O)COc3cccc4oc(C(=O)O)cc(=O)c34)cccc2o1` [cromolyn, reference compound], the EC50 (T2R20) was 50.7 ± 15.1 µM.
For `N[C@@H](CCCCNCC(=O)O)C(=O)O` [CML, Nε-Carboxymethyl-L-lysine], the “Activation of T2R20 by compound alone” value (T2R20) was “activated T2R20”, the EC50 (T2R20) was 65.3 ± 17.8 µM and the “Calcium response by compound alone, T2R14 cells” value (T2R14) was “did not show any calcium response”. The “Inhibition of DPH-activated T2R14 calcium mobilization” value (T2R14) was “no significant effect in suppressing the DPH activation of T2R14”, the “Calcium mobilization by compound alone, T2R4 cells” value (T2R4 [2]) was “did not cause a significant increase in calcium mobilization” and the IC50 (T2R4 [2]) was 32.6 ± 9.5 µM.
In the case of `C=C[C@H]1C[N@@]2CC[C@H]1C[C@H]2[C@H](O)c1ccnc2ccc(OC)cc12` [quinine, quinine hydrochloride], the EC50 (T2R4 [1]; agonist) is listed as 1000 µM.
For `NC(CCCCn1cc[n+](CCCCC(N)C(=O)O)c1)C(=O)O` (centres unmarked) [GOLD, glyoxal-derived lysine dimer], the “Activation of T2R20 by compound alone” value (T2R20) was “activated T2R20”, the EC50 (T2R20) was 79.3 ± 29.2 µM and the “Calcium response by compound alone, T2R14 cells” value (T2R14) was “did not show any calcium response”. The “Inhibition of DPH-activated T2R14 calcium mobilization” value (T2R14) was “did not generate a reverse sigmoid curve to determine the IC50 value; also recorded: no dose-dependent inhibition observed”, the “Calcium mobilization by compound alone, T2R4 cells” value (T2R4 [2]) was “did not cause a significant increase in calcium mobilization” and the IC50 (T2R4 [2]) was 10.5 ± 4.7 µM.
In the case of Pentosidine, the “Solubility in calcium assay buffer” value [3] is reported as “insoluble or only slightly soluble”.
For `CC(NCCCC[C@H](N)C(=O)O)C(=O)O` (some centres unmarked) [Nε-Carboxyethyl Lysine (CEL), Nε-Carboxyethyl Lysine], the “Solubility in calcium assay buffer” value [3] was “insoluble or only slightly soluble”.

Source: article PMC6628017, “Advanced Glycation End-Products Can Activate or Block Bitter Taste Receptors” (Nutrients, 2019)
